# How the values were obtained:
# [1] = Lymph node draining / biodistribution of TMR-labelled antigen after s.c. administration; format: in vivo, C57BL/6 mice; conditions: naive mice, after one day
# Protocol: Tetramethylrhodamine (TMR, excitation/emission ˜540/560 nm) modified MOG peptide (CSSGWYRSPFSRVVHL-TMR, MOG-TMR SEQ ID NO: 829) was prepared by reacting TMR-NHS and MOG peptide according to the manufacturer's instruction. MOG-TMR was purified using HPLC and reacted with DOPE-MAL in DMF to produce DOPE-Mal-MOG-TMR (MOG-TMR). Next, the DMF solution was diluted with water, freeze-dried, dissolved in DMSO, and added to previously made HDL to produce HDL-MOG-TMR. Conjugation of MOG-TMR to DOPE-MAL and incorporation of MOG-TMR in HDL were measured by HPLC/MS, as indicated above. For the lymph node draining studies, naive female C57BL/6 mice or EAE-induced mice were administered s.c. at tail base with HDL-MOG-TMR or free MOG-TMR containing antigen peptide (100 μg per mouse) in 100 μl volume. After 24, 96, and 196 hr, animals were euthanized, organs were harvested, and TMR signal was measured with an IVIS optical imaging system (Caliper Life Sciences). Inguinal lymph nodes and spinal cord were cut into small pieces and passed through a 70-μm cell strainer, washed two times, and stained with the indicated antibodies, followed by flow cytometry analysis.
# [2] = Antigen / drug loading efficiency in HDL nanodiscs (HPLC/MS); format: physicochemical; conditions: antigen / antigen-lipid conjugate loaded into HDL nanodiscs; HPLC/MS
# Protocol: (§1) HDL nanodisc was prepared as previously described. Briefly, DMPC was dissolved in chloroform, which was evaporated with nitrogen flow and under vacuum for at least 1 h. The resulting lipid film was hydrated in 10 mM sodium phosphate buffer and sonicated in a bath sonicator for 10 min. ApoA1 mimetic peptide 22A dissolved in endotoxin free water was added to the above mixture (22A:DMPC=1:2 weight ratio) to obtain nanodiscs. To load MOG antigen peptide in nanodiscs, each antigen peptide was reacted with 4-(4-maleimidophenyl)-butyric DOPE for 3 h in dimethylformamide (DMF), which was removed by freeze-drying after dilution 10× with endotoxin-free water. The lipid-peptide conjugates were dissolved in DMSO and added to pre-formed sHDL and incubated for 30 min at room temperature. Unreacted MOG peptides were removed by using Zeba Spin Desalting columns (Pierce) following the manufacturer's instructions. The conjugation efficiency of MOG peptide was determined by LC-MS and gel permeation chromatography (GPC). EAE was induced in female C57BL/6 mice by inoculation with 100 μg of MOG in complete Freund's adjuvant on day 0 following the administration of pertussis toxin. Mice were then injected subcutaneously at tail base for therapeutic study with sHDL-MOG, MOG or PBS on indicated days. Mice were weighed and scored daily based on the following guideline: 0, no sign of disease; 1, loss of tone in the tail; 2, hind limb paresis; 3, hind limb paralysis; 4, tetraplegia; and 5, moribund.
# To produce HDL nanodiscs carrying immunomodulatory drugs, 22A, and DMPC were dissolved in acetic acid and freeze-dried overnight as shown above. Drugs (FTY720, ITE, TSA, or SAHA) were dissolved in chloroform and added to lyophilized powder, followed by drying overnight in vacuum oven. Dried samples were rehydrated by 10 mM phosphate buffer. After three heat-cooling cycles, HDL-loaded with drugs were performed. The concentration of each drug was measured by HPLC-MS as shown for FTY720, ITE, TSA, or SAHA (FIGS. 14-17, respectively). Free drugs were used to generate standard curves. […] Samples were also analyzed by dynamic light scattering (DLS) for the particle sizes. […] We also analyzed HDL-FTY720 samples using gel permeation chromatography (GPC) (FIG. 19).
# We synthesized HDL nanodiscs loaded with other CD4+ T cell epitopes for validation of our approach. We have synthesized phospholipids conjugated to either Ea chain 52-68 peptide (EA, ASFEAQGALANIAVDKA (SEQ ID NO: 831)), ovalbumin-II 323-339 peptide (OVA-II, ISQAVHAAHAEINEAGR (SEQ ID NO: 832)), and type-II collagen 250-270 peptide (CIA, […] (SEQ ID NO: 833)), each modified with CSS-peptide at N-terminus. Antigen-lipid conjugates were loaded into HDL nanodiscs as described above and analyzed by HPLC/MS and DLS. EA, OVA-II, and CIA peptides were conjugated to MPB-phospholipids with ˜95% conjugation efficiency (FIGS. 22-25). Antigen-lipid conjugates were efficiently loaded into HDL nanodiscs with ˜90%, ˜84%, and ˜78% loading efficiency for EA, OVA-II, and CIA peptides, respectively (FIGS. 22-25).
# [3] = system: experimental autoimmune encephalomyelitis (EAE); experiment: Experimental autoimmune encephalomyelitis (EAE) mouse model, pathological score; format: in vivo, C57BL/6 mice
# Protocol: as §1
# EAE-induced mice were administered s.c. with PBS or HDL-MOG on days 15, 22, and 29, and a subset of animals also received i.p. administration of […] to deplete Tregs at the specified time points (FIG. 13).
# We examined the therapeutic potential of HDL-FTY720 in the EAE model. EAE was initiated as described above. Briefly, EAE was induced in mice as indicated above. Mice received i.p. administration of PBS or HDL-FTY720 (1 mg/kg) on days 14, 21, and 28. Mice were scored daily and assigned EAE scores as indicated above.
molecule,measurement,setting,value
CSSGWYRSPFSRVVHL-TMR [MOG-TMR],TMR signal in inguinal dLNs,[1],minimal TMR signal
"ASFEAQGALANIAVDKA [Ea chain 52-68 peptide, modified with CSS-peptide at N-terminus]",loading efficiency in HDL,[2],~90%
"CCCCCCCCc1ccc(CCC(N)(CO)CO)cc1 [FTY720, Fingolimod]",EAE score,[3]; FTY720 0.3 mg/Kg oral daily for 30 days starting day 30,3
same,EAE score,[3]; FTY720 1 mg/Kg oral daily for 30 days starting day 30,1
same,day by which mice had to be euthanized after treatment stopped,[3]; FTY720 oral daily for 30 days starting day 15,≤ 55 days
same,day by which mice had to be euthanized after treatment stopped,[3]; FTY720 oral daily for 30 days starting day 30,≤ 90 days
same,EAE score,"[3]; treatment started day 15: HDL-MOG s.c. days 15, 22, 29, followed 85 days, FTY720 oral daily for 30 days",above 2
"ISQAVHAAHAEINEAGR [OVA-II, ovalbumin-II 323-339 peptide, modified with CSS-peptide at N-terminus]",loading efficiency in HDL,[2],~84%
"GPKGQTGKPGIAGFKGEQGPK [CIA, type-II collagen 250-270 peptide, modified with CSS-peptide at N-terminus]",loading efficiency in HDL,[2],~78%

# Reference: patent publication US20230001010A1, “COMPOSITIONS AND METHODS FOR TREATING AUTOIMMUNE DISORDERS” (The Regents of the University of Michigan, priority 2019, published 2023)
